According to paper PMC7468108 (Communications Biology, 2020):

Tests used:
[1] = tested on: SH-SY5Y cells exposed to pre-formed Aβ42 fibrils; experiment: XTT assay, reduction of Aβ42-induced cytotoxicity in SH-SY5Y; assay type: cell-based, human; set-up: %Viability: dose or concentration left out as unconfirmed
Experimental: The peptide assemblies were then incubated for further 24 h with SH-SY5Y or HEK-293 cells and cell viability was monitored by XTT assay (Fig. 9). […] The mixtures were then independently applied to the respective cells for 24 h, and cell viability was further measured by XTT assay (Fig. 10a).
The SH-SY5Y and HEK-293 cell lines (2 × 10^5 cells/mL) were cultured in 96-well tissue microplates (100 µL/well) and allowed to adhere overnight at 37 °C. The conjugate molecules were dissolved in DMEM:nutrient mixture F12 (Ham’s) (1:1) (Biological Industries, Israel) at different concentrations. The negative control was prepared as medium without hybrid molecules and treated in the same manner. 100 µL of medium with or without hybrid molecules were added to each well in triplicate. Following incubation for 24 h at 37 °C, cell viability was evaluated using the 2,3-bis(2-methoxy-4-nitro-5-sulfophenyl)-2H-tetrazolium-5-carboxanilide (XTT) cell proliferation assay kit (Biological Industries, Israel) according to the manufacturer’s instructions. Briefly, 100 µL of activation reagent was added to 5 mL of XTT reagent, followed by the addition of 50 µL of activated-XTT solution to each well. After 2 h incubation at 37 °C, color intensity was measured using an ELISA microplate reader at 450 nm and 630 nm. Results are presented as mean and mean standard error. Each experiment was repeated minimum three times.
For the quantitative data derived from ThT and XTT assays, statistical significance, expressed as p-value, was determined using Student’s t-test calculation applied at the end of the experiments, setting tails to 2 (tailed distribution) and type to 2 (samples equal variance), according to reported methods. From the XTT viability assays, EC50 and Emax values were determined from the dose-response curves of each tested molecule using non-linear least-square data fitting, according to literature.

hIAPP = biological target: T1, hIAPP (Homo sapiens, UniProt P10997); experiment: Congo red birefringence of hIAPP fibrils formed with the tested molecules; details: 5-fold molar excess of compound
T1 construct: hIAPP is a 37-amino acid neuroendocrine peptide hormone; purchased Peptide 2.0 (USA)
T1 sequence (P10997 34-70 limits assumed): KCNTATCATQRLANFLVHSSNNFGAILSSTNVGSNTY
Experimental: When hIAPP was incubated with 5-fold molar excess of the hybrid molecules, no typical fibrillar assemblies were observed, rather some amorphous aggregates of different sizes were detected (Fig. 4, upper panel).

[2] = biological target: T2, pre-formed fibrils of hIAPP (Homo sapiens, UniProt P10997); experiment: ThT-binding assay, disaggregation of pre-formed hIAPP fibrils; assay type: biochemical; details: for % amyloid of hIAPP in absence or presence of inhibitors: hIAPP 10 µM; for Normalized ThT fluorescence kinetics: hIAPP (10 µM) : molecule 1:5
T2 construct: hIAPP is a 37-amino acid neuroendocrine peptide hormone; purchased Peptide 2.0 (USA)
T2 sequence (P10997 34-70 limits assumed): T1 sequence (P10997 34-70 limits assumed)
Experimental: For efficient treatment of proteinopathies it may be advantageous to disassemble amyloid aggregates/fibrils which are usually already present at the time of diagnosis[75]–[77]. […] Then, various doses of the hybrid molecules were added to the pre-formed fibrils and the mixtures were incubated for additional 10 h. The process of disaggregation was monitored by ThT-binding assay, CD spectroscopy, TEM and Congo red staining (Fig. 5).
The experiment was performed according to the previous report. […] Kinetics fluorescence data were collected at 37 °C in triplicate using Infinite M200 microplate reader (Tecan, Switzerland), with measurements acquired at 15 min intervals. Excitation and emission wavelengths were set at 440 nm and 485 nm, respectively.

## NC(Cc1c[nH]c2ccccc12)C(=O)NC(Cc1c[nH]c2ccccc12)C(=O)O (stereo not drawn) [WW]
[1]; Aβ42 […] µM : compound 1:1
  %Viability: 54.466%
[1]; Aβ42 […] µM : compound 1:5
  %Viability: 57.303%
[1]; Aβ42 […] µM : compound 1:10
  %Viability: 57.999%
[1]; Aβ42 […] µM : compound 1:20
  %Viability: 59.030%
[1]; Aβ42 […] µM : compound 5:1
  %Viability: 52.403%
[1]; Aβ42 […] µM : compound 10:1
  %Viability: 48.896%
[1]; Aβ42 […] µM : compound 20:1
  %Viability: 51.423%
[1]; Aβ42 […] µM : compound 50:1
  %Viability: 50.031%
[1]; Homo sapiens, read-out: Aβ42 EC50
  EC50: 13 µM
hIAPP
  Congo red birefringence of hIAPP, in words: clear gold-green birefringence
[2]; compound added to pre-formed fibrils
  increase of ThT signal of pre-formed hIAPP fibrils: 20%
[2]; molar ratio hIAPP:tested molecule 1:1
  % amyloid of hIAPP in absence or presence of inhibitors: 112.662%
[2]; molar ratio hIAPP:tested molecule 1:5
  % amyloid of hIAPP in absence or presence of inhibitors: 117.610%
[2]; molar ratio hIAPP:tested molecule 5:1
  % amyloid of hIAPP in absence or presence of inhibitors: 104.704%
[2]; time 10.25 h
  Normalized ThT fluorescence kinetics: 100.289
[2]; time 10.5 h
  Normalized ThT fluorescence kinetics: 101.480
[2]; time 10.75 h
  Normalized ThT fluorescence kinetics: 103.392
[2]; time 11 h
  Normalized ThT fluorescence kinetics: 104.551
[2]; time 11.25 h
  Normalized ThT fluorescence kinetics: 105.696
[2]; time 11.5 h
  Normalized ThT fluorescence kinetics: 107.934
[2]; time 11.75 h
  Normalized ThT fluorescence kinetics: 110.096
[2]; time 12 h
  Normalized ThT fluorescence kinetics: 110.792
[2]; time 12.25 h
  Normalized ThT fluorescence kinetics: 111.709
[2]; time 12.5 h
  Normalized ThT fluorescence kinetics: 113.122
[2]; time 12.75 h
  Normalized ThT fluorescence kinetics: 114.844
[2]; time 13 h
  Normalized ThT fluorescence kinetics: 115.638
[2]; time 13.25 h
  Normalized ThT fluorescence kinetics: 116.172
[2]; time 13.5 h
  Normalized ThT fluorescence kinetics: 117.523
[2]; time 13.75 h
  Normalized ThT fluorescence kinetics: 117.888
[2]; time 14 h
  Normalized ThT fluorescence kinetics: 118.165
[2]; time 14.25 h
  Normalized ThT fluorescence kinetics: 118.126
[2]; time 14.5 h
  Normalized ThT fluorescence kinetics: 117.561
[2]; time 14.75 h
  Normalized ThT fluorescence kinetics: 117.932
[2]; time 15 h
  Normalized ThT fluorescence kinetics: 118.466
[2]; time 15.25 h
  Normalized ThT fluorescence kinetics: 118.713
[2]; time 15.5 h
  Normalized ThT fluorescence kinetics: 118.486
[2]; time 15.75 h
  Normalized ThT fluorescence kinetics: 118.695
[2]; time 16 h
  Normalized ThT fluorescence kinetics: 118.857
[2]; time 16.25 h
  Normalized ThT fluorescence kinetics: 118.835
[2]; time 16.5 h
  Normalized ThT fluorescence kinetics: 118.502
[2]; time 16.75 h
  Normalized ThT fluorescence kinetics: 118.398
[2]; time 17 h
  Normalized ThT fluorescence kinetics: 118.694
[2]; time 17.25 h
  Normalized ThT fluorescence kinetics: 118.398
[2]; time 17.5 h
  Normalized ThT fluorescence kinetics: 118.456
[2]; time 17.75 h
  Normalized ThT fluorescence kinetics: 118.427
[2]; time 18 h
  Normalized ThT fluorescence kinetics: 117.817
[2]; time 18.25 h
  Normalized ThT fluorescence kinetics: 117.835
[2]; time 18.5 h
  Normalized ThT fluorescence kinetics: 117.859
[2]; time 18.75 h
  Normalized ThT fluorescence kinetics: 117.995
[2]; time 19 h
  Normalized ThT fluorescence kinetics: 117.576
[2]; time 19.25 h
  Normalized ThT fluorescence kinetics: 117.741
[2]; time 19.5 h
  Normalized ThT fluorescence kinetics: 118.044
[2]; time 19.75 h
  Normalized ThT fluorescence kinetics: 117.625
[2]; time 20 h
  Normalized ThT fluorescence kinetics: 117.610
